Patent US20190359653A1, “SELECTIVE PEPTIDE INHIBITORS OF FRIZZLED” (Genentech, Inc., priority 2016, published 2019)

How the values were obtained:
[1] = test system: mouse intestinal organoids; assay: RT-PCR of stem cell and Wnt transcripts in organoids; assay type: cell-based; settings: for ISC markers Lgr5 and Ascl2: FIGS. 19A, 19B
Method: Mouse organoids were established from isolated crypts collected from the entire length of the small intestine and maintained as previously described (Sato et al. (2009) Nature 459, 262-265 (2009). All mouse derived tissue was performed according to the animal use guidelines of Genentech, a Member of the Roche Group, and the Institutional Animal Care and Use Committee, conforming to California State legal and ethical practices. Mouse sex was not selected for. Organoids were passaged at least twice per week and grown using IntestiCult Organoid growth media (cat. no. 06005; StemCell Technologies). Peptides were suspended in DMSO and dissolved in media to 1% DMSO final concentration, then added to organoids to initiate drug treatment. Antibodies were added to 10 μg/ml concentration. Organoids were imaged using a Nikon Eclipse Ti scope with a Nikon Plan Fluor 10×Ph1 DLL objective using an Andor Neo camera (1×1 binning; 200 ms exposure) and acquired using NIS Elements (v 4.50 64-bit; Nikon). APC^min organoids were generated as previously described (Melo, F.d.S.e. et al. A distinct role for Lgr5+ stem cells in primary and metastatic colon cancer. Nature 543, 676-680 (2017)). For organoids treated with CHIR99021 (5 μM; Stemcell Technologies) organoids were split and treated with DMSO or CHIR99021 (5 μM) for 24 hr. prior to the addition of peptide or DMSO for 24 hr.
RNA from organoid samples was isolated using the RNeasy Micro kit (cat. no. 74004; Qiagen) according to the manufacturer's instructions. Mouse small intestine RNA was collected using the RNeasy Mini Kit (cat. no. 74104; Qiagen). qRT-PCR was performed in 10 μL reactions with 50 ng total RNA using One-step Real-time RT-PCR mastermix (cat. no. 4392938; Life Technologies) according to the manufacturer's instructions. Taqman probes from Life Technologies were used: Actb (Mm01205647_g1); Lgr5 (Mm01251801_m1); Axin2 (Mm00443610_m1); Ascl2 (Mm01268891_g1); Olfm4 (Mm01320260_m1); Muc2 (Mm01276696_m1); ACTB(Hs99999903_m1); ACTB(Mm00607939_s1); GAPDH (Mm99999915_g1); and GAPDH(Hs03929097_g1). RT-PCR reactions were run using a 7900HT Fast Real-Time PCR system (ABI) at the following thermal cycling conditions: Holding step of 30 min at 48° C., followed by a holding step of 10 min at 95° C., and 40 cycles of 10 sec at 95° C. and 1 min at 60° C. Values were normalized to actin transcript levels and then normalized to control as described in the figure legend.
Treatment with Fz7-21S had no effect. […] The effects of dFz7-21 on both ISC potential and stem cell transcripts were similar to a control anti-Lrp6 antibody (i.e., a general inhibitor of Wnt signaling).

[2] = test system: intestinal organoid samples; assay: RNA sequencing of intestinal organoids; assay type: cell-based, mouse; settings: 6 and 24 h
Method: RNA-Seq libraries were prepared using TruSeq RNA Sample Preparation kit (Illumina, CA). The libraries were sequenced on Illumina HiSeq 2500 sequencers to obtain on average 34 million single-end reads (50 bp) per sample. RNAseq reads were first aligned to ribosomal RNA sequences to remove ribosomal reads. The remaining reads were aligned to the mouse reference genome (NCBI Build 38) using GSNAP (version 2013-10-10) (Wu, T. D. & Nacu, S. Fast and SNP-tolerant detection of complex variants and splicing in short reads. Bioinformatics 26, 873-881 (2010)) allowing a maximum of two mismatches per 50 base sequence (parameters: ‘-M 2-n 10-B 2-i 1-N 1-w 200000-E 1-pairmax-rna=200000-clip-overlap’). Transcript annotation was based on the RefSeq database (NCBI Annotation Release 104). To quantify gene expression levels, the number of reads mapped to the exons of each RefSeq gene was calculated. Read counts were scaled by library size, quantile normalized and precision weights calculated using the “voom” R package (Law, C. W., Chen, Y., Shi, W. & Smyth, G. K. voom: precision weights unlock linear model analysis tools for RNA-seq read counts. Genome Biology 15, R29 (2014)). […] In addition, gene expression was obtained in form of normalized Reads Per Kilobase gene model per Million total reads (nRPKM) as described earlier (Srinivasan, K. et al. Untangling the brain's neuroinflammatory and neurodegenerative transcriptional responses. Nat Commun 7, 11295 (2016)). […]
We performed Quantitative Set Analysis for Gene Expression (QuSAGE) (Yaari, G., Bolen, C. R., Thakar, J. & Kleinstein, S. H. Quantitative set analysis for gene expression: a method to quantify gene set differential expression including gene-gene correlations. Nucleic Acids Research 41, e170-e170 (2013)) to identify relevant biological processes associated with Wnt inhibition. […]

[3] = test system: Wnt3a-mediated β-catenin signaling in HEK293-TB cells; assay type: cell-based

## LPSDDLEFWCHVMY [dFz7-21]
[1]; 24 and 48 h treatment
  Muc2: upregulated
  ISC markers Lgr5 and Ascl2: significantly down regulated
[1]; FIG. 19C
  Axin2: significantly reduced
[2]
  enterocyte markers: up-regulation
  expression of markers of Lgr5+ ISCs and reserve ISCs: substantial down-regulation
[3]; FIG. 15
  improvement compared to monomeric Fz7-21 in inhibiting Wnt3a signaling: ~40 fold

## LPSDDLEFWSHVMY [Fz7-21S, negative control]
[1]; 24 and 48 h treatment
  ISC markers Lgr5 and Ascl2: had no effect
[2]
  expression of markers of Lgr5+ ISCs and reserve ISCs: Little or no change in gene expression
[3]
  Reduction in fold potency vs. dimer: >9,000 fold
  inhibition of Wnt3a signaling: not found to inhibit
